Data as given in patent US12594255B2, “Lipids with odd number of carbon atoms and their use as pharmaceutical composition or nutritional supplement” (SunRegen Healthcare AG, priority 2016, dated 2026).
“And” between values parts separate entries of the source, which are not always exact repeats. Equal values may be shown once.

Experiments:
Type in all cases: cell-based
[1] = test system: mouse primary cortical neurons challenged with Aβ1-42 oligomers (AβO); experiment: AβO-induced neurotoxicity, 48-h pre-incubation with test item, MTT assay; details: for Neuroprotection (0.01 μM) / Neuroprotection (0.1 μM): added 48 hours before 1 μM AβO; for neuroprotective effect: 1 μM, 48-h preincubation before 1 μM AβO
Description: Mouse primary cortical neurons were pre-incubated for 48 h with vehicle, 0.05 μM DHA (used as positive control) or different concentrations of Compound C. Then, cortical neurons were treated for 24 h with vehicle (FIG. 1 left) or 1 μM AβO ([…]) and cell viability was determined using the MTT assay (n=3 determinations per condition, 1 independent experiment), Data are represented as % of vehicle control (Mean*SD). […]
(§1) Cortical neurons from embryonic day 16-17 are prepared from C57BL6/J mouse fetuses. In brief, dissociated cortical cells were plated (50.000 cells/well) in 48-well plates pre-coated with 1.5 μg/mL polyornithine (Sigma). Cells were cultured in a chemically defined Dulbecco's modified eagle's/F12 medium free of serum and supplemented with hormones, proteins and salts. Cultures were kept at 35° C. in a humidified 6% CO2 atmosphere. Mouse cortical neurons were exposed for 24 h to 1.0 μM AβO after a 48-h pre-incubation with vehicle or different concentrations of Compound C. The AβO-induced neurotoxicity was evaluated using the MTT assay.
All treatments were done in triplicates in 48-well plates. Cells were incubated with vehicle or 1 μM AβO in the absence or presence of different lipids at the indicated final concentrations) added at 48 hours before ADO. Cells were incubated with AβO for 24 h in a final volume of 140 μL per well.
For positive controls, cells are treated similarly (48 hours before AβO) in the presence of 0.05 μM DHA.
Following AβO-treatment, cell viability was measured using the MTT assay. Briefly, cells were incubated at 35° C. for 1 h with MTT (Sigma, Cat #M2128-10G. Lot #MKBH7489V). For that purpose, 14 μL of 5 mg/mL MITT (solubilized in PBS) were added in each well. After incubation, medium was removed and cells were lyzed with 150 μL DMSO for 10 minutes and protected from light. After complete solubilization of formazan, absorbance at 570 nm was recorded.
as §1, with “cells are” for “cells were”, “Cells are” for “Cells were”, “Cultures are” for “Cultures were”, “of herb B extracts.” for “of Compound C.”, “assay. […]” for “assay.”

[2] = test system: mouse primary cortical neurons treated with 0.25 mM H2O2; experiment: H2O2-induced neurotoxicity, test item added 48 hours before or 3 hours after H2O2, MTT assay
[3] = test system: mouse primary cortical neurons challenged with Aβ1-42 oligomers (AβO); experiment: AβO-induced neurotoxicity, test item added concomitantly (T0) or 3 h (T3) or 6 h (T6) after AβO, MTT assay; details: 0.1 μM HNG added 3 or 6 h after AβO
Description: Mouse primary cortical neurons were treated at 0 h (T0) with vehicle or 1 μM AβO, Different concentrations of Compound C or HNG (0.1 μM, used as positive control) were added concomitantly to AβO at 0 h (T0)), 3 h (T3) or 6 h (T6) after AβO. Then, cortical neurons were incubated for 24 h and cell viability was determined using the MTT assay (n=3 determinations per condition, 1 independent experiment). Data are represented as % of vehicle control (Mean±SD). […]
The aim of this study is to determine whether Compound C might present neuroprotective, anti-apoptotic and neuro-rescuing effects in in vitro AβO induced neuron death models. For that purpose, the neuro-protective effects of compound C at six concentrations were investigated using mouse primary cortical neurons challenged with Aβ1-42 oligomers (AβO) Compounds were added at different time points (concomitantly T0 with AβO and T3, or T6 after AβO) with the aim to identify rescuing effects or anti-apoptotic effects.
Cortical neurons from embryonic day 16-17 are prepared from C57Bl6/J mouse fetuses, as described in Example I-1.
Mouse cortical neurons were exposed for 24 h to 1.0 μM AβO. The AβO-induced neurotoxicity was evaluated using the MTT assay. […] (FIG. 4)
The percentage of neuroprotection and anti-apoptosis effects was defined as; (neuron viability of compound C group−neuron viability of toxin treated group)/(100−neuron viability of toxin treated group)×100%. The % of neuroprotection and anti-apoptotic effects of compound C at 1000 nM is 88.7%, 52.0%, 22.3%, at T0, T3, or T6, respectively. (FIG. 4) […]

[4] = test system: human iPSC-derived neurons challenged with Aβ1-42 oligomers (AβO); experiment: AβO-induced neuronal death in human iPSC-derived neurons, NSE ELISA assay
Description: iPSCs were treated at 0 h (T0) with vehicle or 1 μM AβO. Different concentrations of Compound C or 0.1 μM HNG (used as positive control) were added concomitantly to AβO at 0 h (T0), 3 h (T3) or 6 h (T6) after AβO. Then, were incubated for 24 h and cell viability was determined using the NSE ELISA assay (n=6 determinations per condition, 1 independent experiment), Data are represented as % of vehicle control (Mean±SD). […]
To determine whether compound C might rescue neuronal death in human iPSC-derived neurons challenged with Aβ1-42 oligomers (AβO). In this cellular model, AβO induce a dramatic neuronal death that could be monitored by the level of neuronal specific enolase (NSE) using a specific ELISA assay. Compound C will be added at different time points (concomitantly and after AMBO) with the aim to identify rescuing effects.
Cells (HIP-Neuronal progenitors, GlobalStem, Cat #GSC-4312, Lot #20010260) are plated in 96-well plates at a density of 60.000 cells per well and culture. Before experiments, cells are matured for five weeks and kept at 37° C. in a humidified 5% CO2 atmosphere.
Cells are incubated with vehicle or 1 μM AβO in the absence or presence of different concentrations (i.e. 10, 100, 1000 and 10000 nM) of Compound C added concomitantly to AβO (T0), 3 h after AβO (T3), or 6 h after AβO (T6). Cells are incubated for 24 h in a final volume of 100 μL per well. For positive control, cells are treated similarly in the presence of 0.1 μM HNG (i.e. S14G variant of humanin peptide). In addition, neuronal loss is monitored using the detection of neuronal specific enolase (NSE) by ELISA assay according to supplier's recommendations (CloneCloud, Cat #SEA537Hu). A total of three data points per experimental condition will be generated here. […]

[5] = test system: mouse primary cortical neurons; experiment: Axonal growth (MAP2 immunolabelling, axonal length); details: 60 nM sAPPα; vehicle control 165.96±90.18 μm
Description: Mouse primary cortical neurons were pre-incubated for 48 h with vehicle, 60 nM sAPPα (used as positive control) or different concentrations of Compound C. Then, cortical neurons were treated for 24 h with vehicle. Data are represented as % of vehicle control (Mean±SD).
Cortical neurons from embryonic day 16-17 are prepared from C57Bl6/J mouse fetuses, as described in Example I-1. After 96-h incubation, axonal length is recorded. Briefly, cells were washed with ice-cold PBS and fixed with cold methanol. Following fixation, cells are immunolabelled using a specific antibody detecting total MAP2 protein. Antibodies to MAP2 are excellent markers on neuronal cells, their axons and neuronal dendrites. For quantification of axonal length, six independent images of labelled cells are captured using an inverted microscope. Pictures of cells are analyzed using Neuron-J software and axonal length is recorded manually. A minimum of 100 independent neurons are treated. The data are expressed as mean axonal length (expressed in μm) (Mean±SD). Statistical differences between vehicle-treated cells and cells treated with compounds are determined using a t-test.

Row | Molecule | Neuroprotection (0.01 μM) [1] [%] | Neuroprotection (0.1 μM) [1] [%] | neuroprotective effect [1] | other results
1 | CC/C=C\C/C=C\C/C=C\C/C=C\C/C=C\C/C=C\CCC(=O)O [DHA, Docosahexaenoic acid, reference compound] | – | – | – | remaining cell viability ([1]; 0.05 μM DHA, 48 h pre-incubation, then 1 μM AβO 24 h): 82.0±2.6 % of control and 90.9±3.1 % of control
2 | CCCCCCCCCCCCCCC(=O)O [GG05, Pentadecanoic acid] | 21.9 | 14.0 | lost neuroprotective effect | –
3 | CCCCCCCCCCCCCCCCC(=O)O [GG07, Heptadecanoic acid] | 27.4 | 21.4 | lost neuroprotective effect | –
4 | CCCCCCCCCCCCCCCCCCC(=O)O [GG09, Nonadecanoic acid] | 31.2 | 25.9 | lost neuroprotective effect | –
5 | Cc1c(C)c2c(c(C)c1O)CCC(C)(C(=O)O)O2 (stereo not shown) [Trolox] | – | – | – | inhibition of H2O2-induced cell death ([2]; 1 mM Trolox added 48 h before 0.25 mM H2O2): partially inhibited cell death induced by H2O2; inhibition of H2O2-induced cell death ([2]; 1 mM Trolox added at T3 after 0.25 mM H2O2): partially inhibited cell death induced by H2O2
6 | HNG: S14G variant of humanin peptide, positive control, well-known antiapoptotic peptide (MAPRGFSCLLLLTGEIDLPVKRRA; UniProt Q8IVG9 1-24, looked up, variant S14G) [reference compound] | – | – | – | prevention of AβO-induced cell death [3]: did not prevent cell death; prevention of AβO-induced cell death ([4]; 0.1 μM HNG added 3 or 6 h after AβO): did not prevent cell death; neuron viability ([4]; 0.1 μM HNG added at T0 with 1 μM AβO, 24 h): 85.3±15.6 % of control and 85.3±5.6 % of control
7 | sAPPα: Secreted amyloid precursor protein-α, positive control [reference compound] | – | – | – | neuronal axon outgrowth (mean axonal length) [5]: 264.63±157.51 μm
